Legend:
ALOMY = test: Herbicidal pre-emergence action (Table A9); assay type: in vivo, Alopecurus myosuroides; conditions: application rate 1280 g/ha; visual grading after ca. 3 weeks
Source text: (§1) Seeds of mono- and dicotyledonous weed plants were sown in plastic pots (double sowings with one species of mono- and one species of dicotyledonous weed plants per pot), in sandy loam, and covered with soil.

STEME = test: Herbicidal pre-emergence action (Table A6); assay type: in vivo, Stellaria media; conditions: visual grading after ca. 3 weeks
Source text: as §1

POAAN [1] = test: Herbicidal pre-emergence action (Table A7); assay type: in vivo, Poa annua; conditions: visual grading after ca. 3 weeks
Source text: as §1

DIGSA = test: Herbicidal pre-emergence action (Table A12); assay type: in vivo, Digitaria sanguinalis; conditions: visual grading after ca. 3 weeks
Source text: as §1

VERPE [2] = test: Herbicidal pre-emergence action (Table A11); assay type: in vivo, Veronica persica; conditions: application rate 1280 g/ha; visual grading after ca. 3 weeks
Source text: as §1

SETVI [3] = test: Herbicidal pre-emergence action (Table A5); assay type: in vivo, Setaria viridis; conditions: visual grading after ca. 3 weeks
Source text: as §1

LOLRI = test: Herbicidal pre-emergence action (Table A3); assay type: in vivo, Lolium rigidum; conditions: visual grading after ca. 3 weeks
Source text: as §1

POAAN [4] = test: Herbicidal post-emergence action (Table B7); assay type: in vivo, Poa annua; conditions: application rate 1280 g/ha
Description: (§2) Seeds of mono- and dicotyledonous weed plants were placed in plastic pots in sandy loam soil (doubly sown with in each case one species of mono- or dicotyledonous weed plants per pot), covered with soil and cultivated in a greenhouse under controlled growth conditions. 2 to 3 weeks after sowing, the test plants were treated at the one-leaf stage. […] After the test plants had been kept in the greenhouse under optimum growth conditions for about 3 weeks, the activity of the preparations was rated visually in comparison to untreated controls. For example, 100% activity = the plants have died, 0% activity = like control plants.

ECHCG [5] = test: Herbicidal pre-emergence action (Table A2); assay type: in vivo, Echinochloa crus-galli; conditions: visual grading after ca. 3 weeks
Source text: as §1

MATIN = test: Herbicidal pre-emergence action (Table A4); assay type: in vivo, Matricaria inodora; conditions: visual grading after ca. 3 weeks
Source text: as §1

ECHCG [6] = test: Herbicidal post-emergence action (Table B3); assay type: in vivo, Echinochloa crus-galli; conditions: application rate 1280 g/ha; rated visually after about 3 weeks
Description: as §2

SETVI [7] = test: Herbicidal post-emergence action (Table B8); assay type: in vivo, Setaria viridis; conditions: application rate 1280 g/ha
Description: as §2

VERPE [8] = test: Herbicidal post-emergence action (Table B10); assay type: in vivo, Veronica persica
Description: as §2

KCHSC = test: Herbicidal pre-emergence action (Table A10); assay type: in vivo, Kochia scoparia; conditions: visual grading after ca. 3 weeks
Source text: as §1

VIOTR = test: Herbicidal pre-emergence action, section C (Table C12); assay type: in vivo, Viola tricolor; conditions: application rate 320 g/ha; visual grading after ca. 3 weeks
Source text: (§3) Seeds of mono- and dicotyledonous weed plants and crop plants were sown, in plastic or organic planting pots, in sandy loam and covered with soil. The compounds according to the invention, formulated in the form of wettable powders (WP) or as emulsifiable concentrates (EC), were applied to the surface of the covering soil as aqueous suspension or emulsion, with the addition of 0.5% of an additive, at an application rate of 600 1 of water/ha (converted). Following treatment, the pots were placed in a greenhouse and kept under optimum growth conditions for the test plants.

ECHCG [9] = test: Herbicidal pre-emergence action, section C (Table C6); assay type: in vivo, Echinochloa crus-galli; conditions: application rate 320 g/ha; visual grading after ca. 3 weeks
Source text: as §3

Row | SMILES | pre-emergence activity against STEME (STEME; application rate 1280 g/ha) [%] | pre-emergence activity against POAAN (POAAN [1]; application rate 320 g/ha) [%] | pre-emergence activity against DIGSA (DIGSA; application rate 1280 g/ha) [%] | pre-emergence activity against SETVI (SETVI [3]; application rate 320 g/ha) [%] | pre-emergence activity against LOLRI (LOLRI; application rate 1280 g/ha) [%] | post-emergence activity against POAAN (POAAN [4]) [%] | pre-emergence activity against ECHCG (ECHCG [5]; application rate 1280 g/ha) [%] | pre-emergence activity against SETVI (SETVI [3]; application rate 1280 g/ha) [%] | also measured
1 | COc1cccc(F)c1CN1CCCC2(CCCN(Cc3c(F)cccc3OC)C2=O)C1=O (racemic) [I-033] | 100 | 100 | 100 | – | – | – | – | – | pre-emergence activity against ALOMY (ALOMY): 90%; pre-emergence activity against VERPE (VERPE [2]): 90%
2 | O=C1N(Cc2c(F)cccc2F)CCCC12CCCN(CC1CCCCC1)C2=O (racemic) [I-034] | 100 | 100 | 100 | 90 | 100 | 90 | 90 | – | –
3 | O=C1N(Cc2ccccc2F)CCCC12CCCN(Cc1ccccc1Cl)C2=O (racemic) [I-036] | – | 90 | – | 100 | – | 90 | – | – | pre-emergence activity against MATIN (MATIN; application rate 320 g/ha): 90%; pre-emergence activity against ALOMY (ALOMY): 90%; pre-emergence activity against LOLRI (LOLRI; application rate 320 g/ha): 100%; post-emergence activity against ECHCG (ECHCG [6]): 90%; post-emergence activity against SETVI (SETVI [7]): 90%; pre-emergence activity against ECHCG (ECHCG [5]; application rate 320 g/ha): 100%
4 | O=C1N(Cc2ccccc2Cl)CCC12CCCN(Cc1cccc(F)c1F)C2=O (racemic) [I-049] | 90 | 100 | – | 100 | – | – | 100 | – | pre-emergence activity against DIGSA (DIGSA; application rate 320 g/ha): 90%; pre-emergence activity against LOLRI (LOLRI; application rate 320 g/ha): 90%; post-emergence activity against ECHCG (ECHCG [6]): 90%
5 | O=C1N(Cc2ccccc2Cl)CCCC12CCCN(Cc1ccccc1Cl)C2=O (racemic) [I-054] | – | 100 | – | 100 | – | – | – | – | post-emergence activity against VERPE (VERPE [8]; application rate 1280 g/ha): 90%; pre-emergence activity against ECHCG (ECHCG [5]; application rate 320 g/ha): 100%; pre-emergence activity against VERPE (VERPE [2]): 90%
6 | O=C1N(Cc2ccccc2)CCCC12CCN(Cc1ccccc1F)C2=O (racemic) [I-059] | 90 | 100 | – | 100 | 100 | 90 | – | – | pre-emergence activity against KCHSC (KCHSC; application rate 1280 g/ha): 90%; pre-emergence activity against MATIN (MATIN; application rate 1280 g/ha): 90%; pre-emergence activity against DIGSA (DIGSA; application rate 320 g/ha): 90%; post-emergence activity against ECHCG (ECHCG [6]): 90%; pre-emergence activity against ECHCG (ECHCG [5]; application rate 320 g/ha): 100%
7 | O=C1N(Cc2ccsc2)CCCC12CCCN(Cc1c(F)cccc1F)C2=O (racemic) [I-075] | 100 | – | – | 90 | – | 90 | – | – | pre-emergence activity against MATIN (MATIN; application rate 1280 g/ha): 90%; pre-emergence activity against ALOMY (ALOMY): 90%; pre-emergence activity against POAAN (POAAN [1]; application rate 1280 g/ha): 100%; pre-emergence activity against LOLRI (LOLRI; application rate 320 g/ha): 100%; post-emergence activity against ECHCG (ECHCG [6]): 90%; pre-emergence activity against ECHCG (ECHCG [5]; application rate 320 g/ha): 100%
8 | Cc1ccccc1CN1CCCC2(CCN(Cc3c(F)cccc3F)C2=O)C1=O (racemic) [I-077] | 90 | 100 | – | – | – | – | – | 100 | pre-emergence activity against DIGSA (DIGSA; application rate 320 g/ha): 90%; pre-emergence activity against LOLRI (LOLRI; application rate 320 g/ha): 100%
9 | Cc1ccccc1CN1CCC2(CCCN(Cc3cccc(F)c3F)C2=O)C1=O (racemic) [I-080] | 90 | 100 | 100 | – | 90 | – | 100 | 100 | pre-emergence activity against KCHSC (KCHSC; application rate 1280 g/ha): 100%
10 | Cc1ccccc1CN1CCCC2(CCN(Cc3cccc(F)c3F)C2=O)C1=O (racemic) [I-081] | 90 | 100 | – | – | 90 | – | – | 100 | pre-emergence activity against MATIN (MATIN; application rate 1280 g/ha): 90%; pre-emergence activity against DIGSA (DIGSA; application rate 320 g/ha): 90%
11 | O=C1N(Cc2ccccc2F)CCC12CCCN(Cc1cccc(F)c1F)C2=O (racemic) [I-085] | – | 100 | – | – | – | 90 | 100 | 100 | pre-emergence activity against KCHSC (KCHSC; application rate 1280 g/ha): 90%; pre-emergence activity against MATIN (MATIN; application rate 320 g/ha): 90%; pre-emergence activity against ALOMY (ALOMY): 90%; pre-emergence activity against STEME (STEME; application rate 320 g/ha): 90%; pre-emergence activity against DIGSA (DIGSA; application rate 320 g/ha): 90%; pre-emergence activity against LOLRI (LOLRI; application rate 320 g/ha): 100%; post-emergence activity against SETVI (SETVI [7]): 90%
12 | Cc1ccccc1CN1CCC2(CCCN(Cc3ccccc3F)C2=O)C1=O (racemic) [I-088] | 90 | 100 | – | – | 100 | – | – | 90 | pre-emergence activity against KCHSC (KCHSC; application rate 320 g/ha): 90%; pre-emergence activity against DIGSA (DIGSA; application rate 320 g/ha): 90%
13 | O=C1N(Cc2ccccc2C(F)(F)F)CCCC12CCCN(Cc1ccccc1C(F)(F)F)C2=O (racemic) [I-091] | – | – | 100 | – | – | – | 100 | – | post-emergence activity against VERPE (VERPE [8]; application rate 320 g/ha): 90%; pre-emergence activity against POAAN (POAAN [1]; application rate 1280 g/ha): 100%
14 | Cc1ccccc1CN1CCCC2(CCCN(Cc3ccccc3)C2=O)C1=O (racemic) [I-092] | – | – | – | 90 | 100 | 90 | – | – | post-emergence activity against VERPE (VERPE [8]; application rate 320 g/ha): 90%; pre-emergence activity against ECHCG (ECHCG [5]; application rate 320 g/ha): 100%
15 | O=C1N(Cc2cscc2Br)CCCC12CCCN(Cc1cscc1Br)C2=O (racemic) [I-186, 2,8-bis[(4-bromothiophen-3-yl)methyl]-2,8-diazaspiro[5.5]undecane-1,7-dione] | – | – | 90 | – | – | – | – | – | pre-emergence activity against KCHSC (KCHSC; application rate 1280 g/ha): 90%
16 | Cc1nc(Cl)sc1CN1CCCC2(CCCN(Cc3sc(Cl)nc3C)C2=O)C1=O (racemic) [I-201, 2,8-bis[(2-chloro-4-methyl-1,3-thiazol-5-yl)methyl]-2,8-diazaspiro[5.5]undecane-1,7-dione] | – | – | 90 | – | – | 90 | – | – | pre-emergence activity against ALOMY (ALOMY): 100%; pest or weed control at 320 g/ha (POAAN [1]; Poa annua, pre-emergence, 504 h, application rate 320 g/ha, read-out: pre-emergence activity against POAAN): 100%; pest or weed control at 1280 g/ha (LOLRI; Lolium rigidum, pre-emergence, 504 h, application rate 1280 g/ha, read-out: pre-emergence activity against LOLRI): 100%; post-emergence activity against SETVI (SETVI [7]): 90%
17 | O=C1N(Cc2ccccc2F)CCCC12CCCN(Cc1ccccc1F)C2=O (single isomer, unassigned) [I-056] | 90 | 100 | 100 | – | 100 | – | 100 | 100 | post-emergence activity against VERPE (VERPE [8]; application rate 1280 g/ha): 90%
18 | O=C1N(Cc2cnc(Br)s2)CCCC12CCCN(Cc1cnc(Br)s1)C2=O (single isomer, unassigned; (-)) [I-206, (-)-2,8-bis[(2-bromo-1,3-thiazol-5-yl)methyl]-2,8-diazaspiro[5.5]undecane-1,7-dione] | 90 | 100 | 90 | – | 90 | – | 100 | 100 | –
19 | O=C1N(Cc2cc(F)c(F)cc2F)CCCC12CCCN(Cc1cc(F)c(F)cc1F)C2=O (single isomer, unassigned; (-)) [I-214, (-)-2,8-bis(2,4,5-trifluorophenylmethyl)-2,8-diazaspiro[5.5]undecane-1,7-dione] | – | – | – | – | – | – | – | – | pre-emergence activity against VIOTR (VIOTR): 80%; pre-emergence activity against ECHCG (ECHCG [9]): 100%
20 | O=C1N(Cc2cccs2)CCCC12CCCN(Cc1ccccc1Cl)C2=O (stereo not shown) [I-062] | – | 100 | – | 100 | – | 90 | 100 | – | pre-emergence activity against STEME (STEME; application rate 320 g/ha): 90%; post-emergence activity against VERPE (VERPE [8]; application rate 1280 g/ha): 90%; pre-emergence activity against LOLRI (LOLRI; application rate 320 g/ha): 100%
21 | CC(c1ccccc1F)N1CCCC2(CCCN(C(C)c3ccccc3F)C2=O)C1=O (stereo not shown) [I-115] | 100 | – | – | – | – | – | – | 100 | post-emergence activity against VERPE (VERPE [8]; application rate 1280 g/ha): 90%; pre-emergence activity against POAAN (POAAN [1]; application rate 1280 g/ha): 90%

Reference: patent publication EP4273147A1, “SUBSTITUTED SPIROLACTAMS, SALTS THEREOF AND THEIR USE AS HERBICIDALLY ACTIVE SUBSTANCES” (Bayer Aktiengesellschaft, priority 2022, dated 2023)
